Measured values reported in ChEMBL document CHEMBL4312011, “Synthesis and biological evaluation of triterpenoid thiazoles derived from betulonic acid, dihydrobetulonic acid, and ursonic acid” (Eur J Med Chem, 2020).
In brackets after ≈: the same amount, converted by molar mass. Activity calls are given as the source filed them. No cut-off for these calls is given here.

Legend:
[1] = Chemical stability of compound in PBS buffer assessed as parent compound remaining at 2 uM at pH 7.4 and 37 degC incubated for 120 mins by RF-MS analysis; format: physicochemical; settings: read-out: Stability
K562 = test: Cytotoxicity against human K562 cells incubated for 72 hrs by MTS assay; format: functional, cell-based; settings: K562, 72 h
CCRF-CEM [2] = test: Cell cycle arrest in human CCRF-CEM cells assessed as decrease in proportion of cells in S phase at 5 times IC50 measured after 24 hrs by propidium iodide/RNase staining based flow cytometry analysis; format: functional
CCRF-CEM [3] = test: Induction of apoptosis in human CCRF-CEM cells assessed as increase in caspase 3/7 activity using Ac-DEVD-AMC as substrate at 5 times IC50 concentration measured after 24 hrs by fluorescence assay; format: functional, cell-based
CCRF-CEM [4] = test: Induction of apoptosis in human CCRF-CEM cells assessed as early apoptotic cells at 5 times IC50 concentration measured after 24 hrs by AnnexinV-FITC/propidium iodide staining based flow cytometry analysis (reference value: 2.8 %); format: functional
[5] = Stability in human plasma assessed as parent compound remaining at 2 uM incubated for 15 mins by RF-MS analysis; format: ADME, cell-free; settings: read-out: Stability
[6] = Chemical stability of compound in PBS buffer assessed as parent compound remaining at 2 uM at pH 7.4 and 37 degC incubated for 30 mins by RF-MS analysis; format: physicochemical; settings: read-out: Stability
CCRF-CEM [7] = test: Cell cycle arrest in human CCRF-CEM cells assessed as increase in G2/M phase accumulation at 5 times IC50 measured after 24 hrs by propidium iodide/RNase staining based flow cytometry analysis; format: functional
A549 = test: Cytotoxicity against human A549 cells incubated for 72 hrs by MTS assay; format: functional, cell-based; settings: A549, 72 h
[8] = Protein binding in human plasma at 10 uM measured after 4 hrs by rapid equilibrium dialysis; format: ADME, cell-free; settings: read-out: PPB (converted)
MRC5 = test: Cytotoxicity against human MRC5 cells incubated for 72 hrs by MTS assay; format: cell-based; settings: MRC5, 72 h
CCRF-CEM [9] = test: Induction of mitochondrial membrane depolarization in human CCRF-CEM cells at 5 times IC50 measured after 24 hrs by JC-1 staining based flow cytometry analysis (reference value: 8.4 %); format: functional
CCRF-CEM [10] = test: Induction of apoptosis in human CCRF-CEM cells assessed as necrotic cells at 5 times IC50 concentration measured after 24 hrs by AnnexinV-FITC/propidium iodide staining based flow cytometry analysis (reference value: 0.1 %); format: functional
CCRF-CEM [11] = test: Cytotoxicity against human CCRF-CEM cells incubated for 72 hrs by MTS assay; format: functional, cell-based
BJ = test: Cytotoxicity against human BJ cells incubated for 72 hrs by MTS assay; format: cell-based
[12] = Cytotoxicity against human CEM-DNR-bulk cells incubated for 72 hrs by MTS assay; format: functional, cell-based
[13] = Chemical stability of compound in PBS buffer assessed as parent compound remaining at 2 uM at pH 7.4 and 37 degC incubated for 15 mins by RF-MS analysis; format: physicochemical; settings: read-out: Stability
U2OS = test: Cytotoxicity against human U2OS cells incubated for 72 hrs by MTS assay; format: functional, cell-based
[14] = Microsomal stability in human liver microsomes assessed as parent compound remaining at 2 uM incubated for 30 mins by RF-MS analysis; format: ADME, Microsome; settings: read-out: Stability
[15] = Chemical stability of compound in PBS buffer assessed as parent compound remaining at 2 uM at pH 7.4 and 37 degC incubated for 60 mins by RF-MS analysis; format: physicochemical; settings: read-out: Stability
HCT-116 [16] = test: Cytotoxicity against p53 knockout human HCT116 cells incubated for 72 hrs by MTS assay; format: functional, cell-based; settings: HCT-116, 72 h
[17] = Stability in human plasma assessed as parent compound remaining at 2 uM incubated for 30 mins by RF-MS analysis; format: ADME, cell-free; settings: read-out: Stability
[18] = Stability in human plasma assessed as parent compound remaining at 2 uM incubated for 120 mins by RF-MS analysis; format: ADME, cell-free; settings: read-out: Stability
[19] = Cytotoxicity against human K562-TAX cells incubated for 72 hrs by MTS assay; format: functional, cell-based
CCRF-CEM [20] = test: Induction of apoptosis in human CCRF-CEM cells assessed as decrease in Bcl-2 expression at 5 times IC50 concentration measured after 24 hrs by Western blot analysis; format: functional, cell-based
CCRF-CEM [21] = test: Induction of apoptosis in human CCRF-CEM cells assessed as viable cells at 5 times IC50 concentration measured after 24 hrs by AnnexinV-FITC/propidium iodide staining based flow cytometry analysis (reference value: 97 %); format: functional
CCRF-CEM [22] = test: Induction of apoptosis in human CCRF-CEM cells assessed as increase in BAX expression at 5 times IC50 concentration measured after 24 hrs by Western blot analysis; format: functional, cell-based
CCRF-CEM [23] = test: Induction of apoptosis in human CCRF-CEM cells assessed as activation of procaspase 8 at 5 times IC50 concentration measured after 24 hrs by Western blot analysis; format: functional, cell-based
[24] = Stability in human plasma assessed as parent compound remaining at 2 uM incubated for 60 mins by RF-MS analysis; format: ADME, cell-free; settings: read-out: Stability
[25] = Permeability of compound in PBS buffer assessed as permeability coefficient at pH 7.4 incubated for 18 hrs by PAMPA based RF-MS analysis; format: ADME; settings: pH 7.4, 18 h
[26] = Microsomal stability in human liver microsomes assessed as parent compound remaining at 2 uM incubated for 60 mins by RF-MS analysis; format: ADME, Microsome; settings: read-out: Stability
[27] = Microsomal stability in human liver microsomes assessed as parent compound remaining at 2 uM incubated for 15 mins by RF-MS analysis; format: ADME, Microsome; settings: read-out: Stability
HCT-116 [28] = test: Cytotoxicity against human HCT116 cells incubated for 72 hrs by MTS assay; format: functional, cell-based; settings: HCT-116, 72 h
CCRF-CEM [29] = test: Induction of apoptosis in human CCRF-CEM cells assessed as late apoptotic cells at 5 times IC50 concentration measured after 24 hrs by AnnexinV-FITC/propidium iodide staining based flow cytometry analysis (reference value: 0.1 %); format: functional
[30] = Solubility of compound in 0.5 % DMSO in water by HPLC-MS analysis; format: physicochemical
[31] = Solubility of compound in 5 % DMSO in water by HPLC-MS analysis; format: physicochemical
[32] = Solubility of compound in 10 % DMSO in water by HPLC-MS analysis; format: physicochemical

Row | remaining at 2 h, 2 µM [1] [%] | remaining at 0.25 h, 2 µM [5] [%] | remaining at 0.5 h, 2 µM [6] [%] | fraction unbound at 4 h, 10 µM [8] | remaining at 0.25 h, 2 µM [13] [%] | remaining at 0.5 h, 2 µM [14] [%] | remaining at 1 h, 2 µM [15] [%] | Structure (SMILES) | IC50 (K562) [µM] | Activity (CCRF-CEM [2]) | Activity (CCRF-CEM [3]) | Activity (CCRF-CEM [4]) [%] | Activity (CCRF-CEM [7]) | IC50 (A549) [µM] | IC50 (MRC5) [µM] | Activity (CCRF-CEM [9]) [%] | Activity (CCRF-CEM [10]) [%] | IC50 (CCRF-CEM [11]) [µM] | IC50 (BJ) [µM] | IC50 [12] [µM] | IC50 (U2OS) [µM] | also measured
1 | 76.3 | 99.3 | 96.1 | 0.015 | 99.3 | 93.4 | 80.4 | CC(C)[C@@H]1CC[C@]2(C(=O)O)CC[C@]3(C)[C@H](CC[C@@H]4[C@@]5(C)Cc6sc(N)nc6C(C)(C)[C@@H]5CC[C@]43C)[C@@H]12 | 43.8 | Active | Active | 3.1 | Active | 44.5 | > 50 | 16.7 | 0.1 | 4.5 | > 50 | 27 | 42.9 | IC50 (HCT-116 [16]): 47.2 µM; remaining at 0.5 h, 2 µM [17]: 99.6%; remaining at 2 h, 2 µM [18]: 99.9%; IC50 [19]: 22.8 µM; Activity (CCRF-CEM [20]): Active; Activity (CCRF-CEM [21]): 96.4%; Activity (CCRF-CEM [22]): Active; Activity (CCRF-CEM [23]): Active; remaining at 1 h, 2 µM [24]: 99.9%; log(permeability) [25]: -5.34; remaining at 1 h, 2 µM [26]: 90.8%; remaining at 0.25 h, 2 µM [27]: 97.7%; IC50 (HCT-116 [28]): 32.4 µM; Activity (CCRF-CEM [29]): 0.4%
2 | 74.9 | 99.4 | 77 | 0.011 | 91.2 | 90 | 74.8 | CC1(C)CC[C@]2(C(=O)O)CC[C@]3(C)C(=CC[C@@H]4[C@@]5(C)Cc6sc(N)nc6C(C)(C)[C@@H]5CC[C@]43C)[C@@H]2C1 | > 50 | Active | Active | 12 | Active | 47.7 | > 50 | 23.4 | 0.1 | 5.2 | > 50 | 19.8 | 28.8 | solubility [30]: 27 µM (≈ 13.8 µg/mL); IC50 (HCT-116 [16]): 33.3 µM; remaining at 0.5 h, 2 µM [17]: 99.2%; remaining at 2 h, 2 µM [18]: 99.1%; IC50 [19]: 18.9 µM; Activity (CCRF-CEM [20]): Active; solubility [31]: 45 µM (≈ 23 µg/mL); Activity (CCRF-CEM [21]): 87.4%; Activity (CCRF-CEM [22]): Active; Activity (CCRF-CEM [23]): Active; remaining at 1 h, 2 µM [24]: 99.4%; log(permeability) [25]: -7.16; remaining at 1 h, 2 µM [26]: 87.1%; remaining at 0.25 h, 2 µM [27]: 96.8%; IC50 (HCT-116 [28]): 31 µM; Activity (CCRF-CEM [29]): 0.5%; solubility [32]: 91 µM (≈ 46.5 µg/mL)
